# Like-named read-outs stand apart in the source and are kept apart here. Marks after values point to notes of the source that are not given here.
# Tests used:
# [1] = biological target: T1, HLA-A*30:01 (Homo sapiens, UniProt P04439, D140H/D185E/E176W/F33S/G80R/H175R/K168Q/R138E/R41S); assay: off-rate assay (t1/2); type: binding; settings: time points 0-8 h
# [2] = biological target: T1, HLA-A*30:01; assay: affinity assay (ED50); type: binding; settings: peptide titrated 10−4 to 10−9 M
# [3] = biological target: T2, HLA-A*68:01 (Homo sapiens, UniProt P04439, A269V/D185E/E176V/E277Q/E87N/F33Y/G231S/I121M/I166T/I218V/L180W/L300P/L318F/N151K/P208A/P217A/Q86R/R169H/T345S); type: binding; settings: time points 0-8 h
# [4] = biological target: T2, HLA-A*68:01; type: binding
# [5] = biological target: T1, HLA-A*30:01; type: binding; settings: percent relative the binding of positive control peptide […]; duplicated experiments; positive binder >40%
# [6] = biological target: T3, HLA-A*02:01 (Homo sapiens, UniProt P04439, D140Y/D185E/D98H/E176V/E277Q/G131W/G231S/I119V/I121R/I166T/I218V/L300P/L318F/N151K/N90K/P208A/P217A/Q86G/Q94H/R138H/R169H/T345S); type: binding; settings: time points 0-8 h; time when 50% of peptide has dissociated
# [7] = biological target: T3, HLA-A*02:01; type: binding; settings: […]; peptide quantity for 50% binding saturation
# [8] = biological target: T4, HLA-B*58:01 (Homo sapiens, UniProt P01889, A329T/C349S/D201E/D98Y/E176V/E187L/E204Q/E69T/G107R/I218V/I90N/K202T/L105A/L119I/N104I/N87E/Q89R/Q94S/R106L/R155S/R180L/R86G/S101N/S121R/S35A/S48A/T118I/V127L/V306I/V36M/Y140S/Y91M); type: binding; settings: percent relative the binding of positive control peptide […]; duplicated experiments; positive binder >40%
# [9] = biological target: T2, HLA-A*68:01; type: binding; settings: duplicated experiments, positive binder >40%
# [10] = biological target: T3, HLA-A*02:01; type: binding; settings: percent relative the binding of positive control peptide […]; plate-bound monomer 0.5 µg/ml; duplicated experiments; positive binder >40%
# [11] = biological target: HLA-B*07:02 (Homo sapiens, UniProt P01889); type: binding; settings: percent relative the binding of positive control peptide […]; duplicated experiments; positive binder >40%
# [12] = biological target: T4, HLA-B*58:01; type: binding
# [13] = biological target: T5, HLA-A*24:02 (Homo sapiens, UniProt P04439, D101N/D140Y/D185E/E176V/E190D/F33S/G103R/G107R/I119L/I121M/I306V/K335N/L105A/L180Q/L300P/N151K/N90K/Q86E/Q94H/R106L/R138H/R89G/T104I/T345S/V100E/W191G/Y123F); type: binding; settings: percent relative the binding of positive control peptide […]; duplicated experiments; positive binder >40%
# [14] = biological target: HLA-C*07:01 (Homo sapiens, UniProt P10321, K90N/S123Y); type: binding; settings: percent relative the binding of positive control peptide […]; duplicated experiments; positive binder >40%
# [15] = biological target: T4, HLA-B*58:01; type: binding; settings: time points 0-8 h
# [16] = biological target: T6, HLA-A*30:02 (Homo sapiens, UniProt P04439, D101N/D140H/D185E/E176R/F33S/G80R/H175R/K168Q/Q94H/R138E/R41S/V100E); type: binding; settings: percent relative the binding of positive control peptide […]; duplicated experiments; positive binder >40%
# [17] = biological target: T3, HLA-A*02:01; settings: wild-type epitopes marked *; cited from earlier work
# [18] = biological target: T5, HLA-A*24:02; settings: cited from earlier work
# [19] = biological target: T3, HLA-A*02:01; settings: wild-type epitopes marked *; cited from earlier work; remark: listed apart in the source
# [20] = biological target: T5, HLA-A*24:02; settings: percent relative the binding of a positive control peptide, cited from earlier work
# [21] = biological target: T6, HLA-A*30:02; settings: wild-type epitopes marked **; cited from earlier work
# [22] = biological target: T5, HLA-A*24:02; settings: cited from earlier work; remark: listed apart in the source
# [23] = biological target: T6, HLA-A*30:02; settings: percent relative the binding of a positive control peptide; wild-type epitopes marked **; cited from earlier work
# [24] = biological target: T6, HLA-A*30:02; settings: wild-type epitopes marked **; cited from earlier work; remark: listed apart in the source
# [25] = biological target: T3, HLA-A*02:01; settings: percent relative the binding of a positive control peptide; wild-type epitopes marked *; cited from earlier work
# [26] = biological target: T6, HLA-A*30:02; type: binding; settings: time points 0-8 h
# [27] = biological target: T6, HLA-A*30:02; type: binding
# [28] = percent relative the binding of positive control peptide […]
Substance,O-rate A*30:01 (t1/2) [1] [h],Aff A*30:01 (ED50) [2],O-rate A*68:01 (t1/2) [3] [h],Bind A*30:01 [5] [%],Bind B*58:01 [8] [%],"Bind A*68:01 [9, 28] [%]",Bind A*02:01 [10] [%],Bind B*07:02 [11] [%],Bind A*24:02 [13] [%],Bind C*07:01 [14] [%],Bind A*30:02 [16] [%],Aff A*24:02 (ED50) ([18]; wild-type epitopes marked *) [nM],Bind A*24:02 ([20]; wild-type epitopes marked *),O-rate A*24:02 (t1/2) ([22]; wild-type epitopes marked *) [h],other results
AAYHPQQFI,0.5,2E -07 M,3.8,83,64,47,56,9,54,0,34,,,,Aff A*68:01 (ED50) [4]: 3E -05 M; O-rate A*02:01 (t1/2) [6]: 1.2 h; Aff A*02:01 (ED50) [7]: 6E -07 M; Aff B*58:01 (ED50) [12]: 4E -08 M; O-rate B*58:01 (t1/2) [15]: 0.8 h
AMLGHAGDM [Rv0288_10–18wt],,,,,,,,,,,,100000,25* percent,3.1,O-rate A*02:01 (t1/2) [17]: 1.7 h; Aff A*02:01 (ED50) [19]: 6000 nM; Aff A*30:02 (ED50) [21]: 50 nM; Bind A*30:02 [23]: 97** percent; O-rate A*30:02 (t1/2) [24]: 1.2 h; Bind A*02:01 [25]: 46* percent
DLVRAYHAM [Rv0288_64–72wt],,,3.3,,,,,,,,,2000,31* percent,2.9,Aff A*68:01 (ED50) ([4]; peptide titrated 10−4 to 10−9 M): 0.0004 M; Bind A*68:01 ([9]; percent relative the binding of positive control peptide KTGGPIYKR): 34%
GYAGTLQSL [Rv0288_20–28wt],,,,,,,,,,,,,,,Aff A*24:02 (ED50) [18]: 300 nM; Bind A*24:02 ([20]; […]): 76* percent; O-rate A*24:02 (t1/2) [22]: 3.7 h
KLVANNT RL,0.7,2E -08 M,,60,40,18,81,43,73,13,167,,,,O-rate A*30:02 (t1/2) [26]: 2.2 h; Aff A*30:02 (ED50) [27]: 1E -07 M
MYNYPAMLG [Rv0288_5–13wt],,,,,,,,,,,,600,72* percent,1.4,Aff A*30:02 (ED50) [21]: 7000 nM; Bind A*30:02 [23]: 45** percent; O-rate A*30:02 (t1/2) [24]: 0.6 h
NFVRSSNLK,0.4,9E -07 M,0.2,101,10,84,3,0,0,0,0,,,,Aff A*68:01 (ED50) [4]: 3E -06 M
TLQSLGAEI [Rv0288_24–32wt],,,,,,,,,,,,90,16* percent,39.8,O-rate A*02:01 (t1/2) [17]: 1.7 h; Aff A*02:01 (ED50) [19]: 3000 nM; Bind A*02:01 [25]: 46* percent

# From PMC3608651, “A Broad Profile of Co-Dominant Epitopes Shapes the Peripheral Mycobacterium tuberculosis Specific CD8+ T-Cell Immune Response in South African Patients with Active Tuberculosis” (PLoS ONE, 2013)
